Laboratory results published in patent publication US20080103205A1, “Pesticidal compositions and methods of use” (priority 2006, published 2008).
Where two headings read alike, the source gives them in different places.

What was measured:
Assay type in all cases: in vivo
[1] = test system: Drosophila melanogaster; experiment: Toxicity against adult Drosophila melanogaster, sugar solution feeding
Description: Toxicity tests were conducted using mixed sex adults of D. melanogaster maintained on artificial diet in the department of entomology, Virginia Tech. Test concentrations of 6.25, 12.5, 25, 50 or 100 ppm were prepared in 0.2% dimethyl sulfoxide (DMSO) for DIDS, 9-AC, NPPB, and IAA-94. The above final concentrations were obtained after mixing them in 10 ml of 10% sugar solution. Similar preparations with 0.2% DMSO alone served as controls. One end of a cotton wick was dipped in 0.5 ml of sugar solution and placed on the glass vial containing 10 adult flies of mixed sex. Each concentration of test chemical had 5 replications. Mortality counts of flies were taken 24, 48, and 72 hrs after treatment. Insects without movement upon probing were considered dead. LC50 values and confidence intervals for each chemical were estimated using POLO PLUS software program. The data provided in Tables 3-A and 3-B below confirm that AT blockers are toxic to insects in acute exposures.

[2] = test system: European corn borer (Ostrinia nubilalis); experiment: Diet surface test on European corn borer larvae (2nd instar)
Description: Concentrations of 6.25, 12.5, 25, or 50 ppm AT blocker were prepared in 95% ethyl alcohol (EtOH). 95% EtOH alone served as control. European corn borer (ECB) diet prepared from the powdered diet supplied by French Agricultural Research, Inc. Diet (1-2 ml) was poured into small cups and allowed to cool to room temperature. Test solution (100 ul) was placed onto the diet surface and allowed to evaporate the solvent. Each concentration of chemical had 2 sets of 10 cups each. One late 2nd instar larva was placed in each cup and covered with lid having perforations for aeration. Cups were placed in an incubator for 7 days at 25±1° C. and 70±5% RH. After seven days, the weight of each larva was taken and any mortality was recorded. Then, the surviving larvae were transferred to fresh diet cups holding sufficient diet (5-6 ml) without chemicals and incubated at 25±1° C. and 70±5% RH until pupation. Weights of larvae were taken 14 days after transferring to fresh diet (21 days after start of treatment). Finally, the number of days until pupation was recorded.
Anion transporters caused larval death and a reduction in weight gain within 7 days exposure. The effect persisted for 2 weeks time on untreated diet, but total time to pupation was relatively unaffected.

[3] = test system: Caenorhabditis elegans; experiment: Toxicity test, adult Caenorhabditis elegans, 96 well micro plate; conditions: Caenorhabditis elegans
Description: Methodology: Toxicity tests were conducted using J2 juveniles of Meloidogyne incognita adult Caenorhabditis elegans collected from nematode-infested tomato plant roots and culture Petri plates, respectively. Test concentrations of 50, 100, 200, 300, or 400 ppm were prepared in 0.2% dimethylsulfoxide (DMSO) in tap water. Aliquots (300 microliters (ul)) were applied to a 96 well micro plate and a 20 ul aqueous solution containing nematodes was added. The number of nematodes in 20 ul ranged from 17 to 30. Micro plates were sealed with Parafilm™ and incubated at room temperature. Similar tests conducted with 0.2% DMSO in tap water served as controls. Nematode mortality was checked at 24, 48, 72, 120, and 168 hr after incubation. Nematodes that were motionless for 30 sec when observed under a stereomicroscope were considered paralyzed and included in mortality counts. Each concentration was replicated five times and mean percent mortality was calculated after correcting for control mortality using Abbott's formula.
Data Analysis: Mortality data were analyzed using PROC PROBIT (SAS) program and LC50 values were estimated.

[4] = 6.25 ppm, 7 days after feeding, 10 larvae treated
[5] = 6.25 ppm, 21 days after feeding
[6] = 6.25 ppm, 21 days after feeding, 10 larvae treated
[7] = 12.5 ppm, 7 days after feeding, 10 larvae treated
[8] = 12.5 ppm, 21 days after feeding
[9] = 12.5 ppm, 21 days after feeding, 10 larvae treated
[10] = 25 ppm, 7 days after feeding, 10 larvae treated
[11] = 25 ppm, 21 days after feeding, 10 larvae treated
[12] = 50 ppm, 7 days after feeding, 10 larvae treated
[13] = 24 h, read-out: Corrected Mortality (%)
[14] = 48 h, read-out: Corrected Mortality (%)
[15] = 72 h, read-out: Corrected Mortality (%)
[16] = 120 h, read-out: Corrected Mortality (%)
[17] = 168 h, read-out: Corrected Mortality (%)

CC1(C2CCCC2)Cc2cc(OCC(=O)O)c(Cl)c(Cl)c2C1=O (single isomer, unassigned; (+)) [IAA-94, (+)(2-cyclopentyl-6,7-dichloro-2-methyl-1-oxo-5-indanyloxy) acetic acid]
LC50 (ppm) ([1]; 48 hr): 170.05 ppm
LC50 (ppm) ([1]; 72 hr): 115.67 ppm
Mean wt of survived larvae ([2]; 6.25 ppm, 7 days after feeding): 45.52 mg
Mean wt of survived larvae, mg ([2]; 6.25 ppm, 7 days after feeding): 44.64 (10) mg
No. dead ([2]; 6.25 ppm, 7 days after feeding, 10 larvae): 0
# surviving [2, 4]: 10
No. dead [2, 4]: 0
Mean wt of survived larvae [2, 5]: 138.56 mg
Mean wt of survived larvae, mg [2, 5]: 150.90 (10) mg
No. dead ([2]; 6.25 ppm, 21 days after feeding, 10 larvae): 0
# surviving [2, 6]: 10
No. dead [2, 6]: 0
Mean wt of survived larvae ([2]; 12.5 ppm, 7 days after feeding): 33.62 mg
Mean wt of survived larvae, mg ([2]; 12.5 ppm, 7 days after feeding): 34.40 (10) mg
No. dead ([2]; 12.5 ppm, 7 days after feeding, 10 larvae): 0
# surviving [2, 7]: 10
No. dead [2, 7]: 0
Mean wt of survived larvae [2, 8]: 108.84 mg
Mean wt of survived larvae, mg [2, 8]: 115.14 (10) mg
No. dead ([2]; 12.5 ppm, 21 days after feeding, 10 larvae): 0
# surviving [2, 9]: 10
No. dead [2, 9]: 0
Mean wt of survived larvae ([2]; 25 ppm, 7 days after feeding): 25.97 mg
Mean wt of survived larvae, mg ([2]; 25 ppm, 7 days after feeding): 23.96 (10) mg
No. dead ([2]; 25 ppm, 7 days after feeding, 10 larvae): 0
# surviving [2, 10]: 8
No. dead [2, 10]: 2
Mean wt of survived larvae ([2]; 25 ppm, 21 days after feeding): 4.85 mg
Mean wt of survived larvae, mg ([2]; 25 ppm, 21 days after feeding): 65.60 (8) mg
No. dead ([2]; 25 ppm, 21 days after feeding, 10 larvae): 2
# surviving [2, 11]: 8
No. dead [2, 11]: 2
Mean wt of survived larvae ([2]; 50 ppm, 7 days after feeding): 11.90 mg
Mean wt of survived larvae, mg ([2]; 50 ppm, 7 days after feeding): 12.93 (6) mg
No. dead ([2]; 50 ppm, 7 days after feeding, 10 larvae): 4
# surviving [2, 12]: 2
No. dead [2, 12]: 8
Mean wt of survived larvae ([2]; 50 ppm, 21 days after feeding): 0 mg
Mean wt of survived larvae, mg ([2]; 50 ppm, 21 days after feeding): 24.0 (2) mg
No. dead ([2]; 50 ppm, 21 days after feeding, 10 larvae): 8
No. dead ([2]; 50 ppm, 21 days after feeding, 10 larvae treated): 10
mortality at 6.25 ppm ([2]; Ostrinia nubilalis, 168 h, 6.25 ppm, 7 days after feeding): 0%
mortality at 12.5 ppm ([2]; Ostrinia nubilalis, 168 h, 12.5 ppm, 7 days after feeding): 0%
mortality at 6.25 ppm ([2]; Ostrinia nubilalis, 504 h, 6.25 ppm, 21 days after feeding): 0%
mortality at 12.5 ppm ([2]; Ostrinia nubilalis, 504 h, 12.5 ppm, 21 days after feeding): 0%
mortality at 25 ppm ([2]; Ostrinia nubilalis, 504 h, 25 ppm, 21 days after feeding): 20%
mortality at 50 ppm ([2]; Ostrinia nubilalis, 504 h, 50 ppm, 21 days after feeding): 80%
mortality at 50 ppm ([3]; 24 h): 8%
mortality at 100 ppm ([3]; 24 h): 14%
mortality at 200 ppm ([3]; 24 h): 17%
mortality at 300 ppm ([3]; 24 h): 21%
mortality at 400 ppm ([3]; 24 h): 24%
mortality at 50 ppm [3, 13]: 5%
mortality at 100 ppm [3, 13]: 11%
mortality at 200 ppm [3, 13]: 14%
mortality at 300 ppm [3, 13]: 19%
mortality at 400 ppm [3, 13]: 22%
mortality at 50 ppm ([3]; 48 h): 17%
mortality at 100 ppm ([3]; 48 h): 29%
mortality at 200 ppm ([3]; 48 h): 38%
mortality at 300 ppm ([3]; 48 h): 43%
mortality at 400 ppm ([3]; 48 h): 48%
mortality at 50 ppm [3, 14]: 13%
mortality at 100 ppm [3, 14]: 25%
mortality at 200 ppm [3, 14]: 35%
mortality at 300 ppm [3, 14]: 40%
mortality at 400 ppm [3, 14]: 45%
mortality at 50 ppm ([3]; 72 h): 35%
mortality at 100 ppm ([3]; 72 h): 44%
mortality at 200 ppm ([3]; 72 h): 64%
mortality at 300 ppm ([3]; 72 h): 71%
mortality at 400 ppm ([3]; 72 h): 77%
mortality at 50 ppm [3, 15]: 31%
mortality at 100 ppm [3, 15]: 40%
mortality at 200 ppm [3, 15]: 62%
mortality at 300 ppm [3, 15]: 69%
mortality at 400 ppm [3, 15]: 76%
mortality at 50 ppm ([3]; 120 h): 58%
mortality at 100 ppm ([3]; 120 h): 70%
mortality at 200 ppm ([3]; 120 h): 90%
mortality at 300 ppm ([3]; 120 h): 94%
mortality at 400 ppm ([3]; 120 h): 98%
mortality at 50 ppm [3, 16]: 53%
mortality at 100 ppm [3, 16]: 67%
mortality at 200 ppm [3, 16]: 89%
mortality at 300 ppm [3, 16]: 93%
mortality at 400 ppm [3, 16]: 98%
mortality at 50 ppm ([3]; 168 h): 81%
mortality at 100 ppm ([3]; 168 h): 94%
mortality at 200 ppm ([3]; 168 h): 99%
mortality at 300 ppm ([3]; 168 h): 100%
mortality at 400 ppm ([3]; 168 h): 100%
mortality at 50 ppm [3, 17]: 78%
mortality at 100 ppm [3, 17]: 93%
mortality at 200 ppm [3, 17]: 99%
mortality at 300 ppm [3, 17]: 100%
mortality at 400 ppm [3, 17]: 100%
